Experimental findings from US20110112100A1, “Hepatitis C Virus Inhibitors” (priority 2009, published 2011) are described below.

The structures appear in SMILES notation. Counter-ions that a name gives are not always drawn. Like-named read-outs stand apart in the source and are kept apart here.

Test [1] concerns 1a-H77 replicon cells. As to the kind of experiment: HCV 1a replicon inhibitory activity (Renilla luciferase). The test is classed as cell-based, hepatitis C virus. The conditions noted are these: read-out: IC50 value (95% Confidence Intervals) pM Replicon 1A assay. How it is done: (§1) Test compounds were solubilised to 4 mM in 100% DMSO. Dilutions were made to the desired starting concentration in 100% DMSO and then 1 in 3 dilutions made, again in 100% DMSO. 0.5 μl of each sample was added to 384-well assay plates. White Lumitrac (Greiner) plates were used for the 1a and 1b replicon assays and black, clear bottomed (Greiner) plates were used for the WST-1 cytotoxity assay.
1a-H77 replicon cells (licensed from Apath LLC) were resuspended to a concentration of 1.4×10^5 cells/ml by addition of pre-warmed assay medium (Dulbecco's Modified Eagle's Medium (DMEM)+10% fetal calf serum (FCS)). 50 μl of this suspension was added to each well of a 384-well assay plate (Lumitrac, Greiner), already containing 0.5 μl of test compound.
All plates were covered with gas permeable seals and incubated at 37° C., 5% CO2 for 48 hours. After 48 hours, the assay plate was removed from the incubator and left to cool to room temperature for 15 to 30 mins. Medium was removed from the wells and 5 μl 1× lysis buffer (from Promega's Renilla Luciferase assay kit, E2820) was added to each well. The plate was incubated at room temperature for 15 mins then 15 μl 1×Assay Substrate (from the same kit) was added to each well. Luminescence was read immediately using an EnVision (Perkin Elmer) plate reader. The half maximal effective concentration (1050) values were calculated by constructing log concentration-response curves for each compound.

The subject of test [2] is 1b (con1) replicon cells. Kind of test: HCV 1b replicon inhibitory activity (luciferase, Britelite Plus). The test is classed as cell-based, hepatitis C virus. The conditions noted are these: read-out: IC50 value (95% Confidence Intervals) pM Replicon 1B assay. How it is done:
as §1
1b (con1) replicon cells (pFK1389lucubineo/NS3-3′/ET/9B, licensed from Ralf Bartenschlager, University of Heidelberg) were resuspended to a concentration of 1.4×10^5 cells/ml by addition of pre-warmed medium (DMEM+10% FCS). 50 μl of this suspension was added to each well of a 384-well assay plate (Lumitrac, Greiner) already containing 0.5 μl of test compound.
All plates were covered with gas permeable seals and incubated at 37° C., 5% CO2 for 48 hours. After 48 hours, the plate was removed from the incubator and left to cool to room temperature for 15-30 mins. 35 ul of reconstituted Lyophilised Britelite Plus Substrate (PerkinElmer, 6016767) to medium was added to each well. Luminescence was read after 1 min but before 15 mins on an EnVision (Perkin Elmer) plate reader. The half maximal effective concentration (1050) values were calculated by constructing log concentration-response curves for each compound.

Setting [3] is: Hepatitis C virus, geometric mean, 95% confidence intervals in parentheses, 48 hours, medium with 10% FCS.
Where [4] appears, read: geometric mean, 95% confidence intervals in parentheses, 48 hours, medium with 10% FCS.

In general, IC50 refers to the concentration at which inhibition is half-maximal. With `COC(=O)N[C@H](C(=O)N1CCC[C@H]1c1nc(-c2ccc3cc(-c4ccc(-c5cnc([C@@H]6CCCN6C(=O)[C@@H](NC(=O)OC)C(C)C)[nH]5)cc4)ccc3n2)c[nH]1)C(C)C` [Example 13, Methyl {(2S)-1-[(2S)-2-{5-[4-(2-{2-[(2S)-1-{(2S)-2-[(methoxycarbonyl)amino]-3-methyl-butanoyl}pyrrolidin-2-yl]-1H-imidazol-4-yl}quinolin-6-yl)phenyl]-1H-imidazol-2-yl}pyrrolidin-1-yl]-3-methyl-1-oxobutan-2-yl}carbamate], the values for the IC50 in test [1] (setting [3]) and in test [2] (setting [3]) were 78.1 pM and 12 pM, respectively.
Turning to `COC(=O)N[C@@H](COCc1ccccc1)C(=O)N1CCC[C@H]1c1ncc(-c2ccc3nc(-c4ccc(-c5c[nH]c([C@@H]6CCCN6C(=O)[C@@H](NC(=O)OC)C(C)C)n5)cc4)cnc3c2)[nH]1` [Example 48, Methyl {(2S)-1-[(2S)-2-{4-[4-(6-{2-[(2S)-1-{(2S)-3-(benzyloxy)-2-[(methoxycarbonyl)amino]propanoyl}pyrro-lidin-2-yl]-1H-imidazol-5-yl}quinoxalin-2-yl)phenyl]-1H-imidazol-2-yl}pyrrolidin-1-yl]-3-methyl-1-oxobutan-2-yl}carbamate carbamate trifluoroacetic acid salt], the 50% inhibitory concentration (IC50) in test [1] (setting [4]) is 27.8 pM; in test [2] (setting [4]), 6.84 pM.
On to `COC(=O)N[C@H](C(=O)N1CCC[C@H]1c1nc(-c2ccc(-c3ccc4cc(-c5cnc([C@@H]6CCCN6C(=O)[C@@H](NC(=O)OC)C(C)C)[nH]5)ccc4c3)nc2)c[nH]1)C(C)C` [Example 6, Methyl {(2S)-1-[(2S)-2-{5-[6-(5-{2-[(2S)-1-{(2S)-2-[(methoxycarbonyl)amino]-3-methyl-butanoyl}pyrrolidin-2-yl]-1H-imidazol-4-yl}pyridin-2-yl)naphthalen-2-yl]-1H-imidazol-2-yl}pyrrolidin-1-yl]-3-methyl-1-oxobutan-2-yl}carbamate], for which the half-maximal inhibitory concentration (IC50) in test [1] (setting [3]) amounted to 56.4 pM; in test [2] (setting [3]), 3.51 pM.
For `COC(=O)N[C@H](C(=O)N1CCC[C@H]1c1nc(-c2ccc(-c3cnc4cc(-c5cnc([C@@H]6CCCN6C(=O)CNC(=O)c6ccc7[nH]cnc7c6)[nH]5)ccc4n3)cc2)c[nH]1)C(C)C` [Example 43, Methyl {(2S)-1-[(2S)-2-(4-{4-[6-(2-{(2S)-1-[N-(1H-benzimidazol-5-ylcarbonyl)glycyl]pyrrolidin-2-yl}-1H-imidazol-5-yl)quinoxalin-2-yl]phenyl}-1H-imidazol-2-yl)pyrrolidin-1-yl]-3-methyl-1-oxobutan-2-yl}carbamate trifluoroacetic acid salt], the IC50 in test [1] (Hepatitis C virus, 48 h) was 787 pM; in test [2] (Hepatitis C virus, 48 h) it was 388 pM.
As for `COC(=O)N[C@H](C(=O)N1CCC[C@H]1c1nc(-c2ccc(-c3cnc4cc(-c5cnc([C@@H]6CCCN6C(=O)[C@@H](NC(C)=O)[C@@H](C)O)[nH]5)ccc4n3)cc2)c[nH]1)C(C)C` [Example 40, Methyl {(2S)-1-[(2S)-2-{4-[4-(6-{2-[(2S)-1-(N-acetyl-L-threonyl)pyrroldiin-2-yl]-1H-imidazol-5-yl}quinoxalin-2-yl)phenyl]-1H-imidazol-2-yl}pyrrolidin-1-yl]-3-methyl-1-oxobutan-2-yl}carbamate trifluoroacetic acid salt], the IC50 in test [1] (setting [4]) was 353 pM; in test [2] (setting [4]) it was 55.8 pM.
Take `COC(=O)NC(C(=O)N1CCC[C@H]1c1ncc(-c2ccc3nc(-c4ccc(-c5c[nH]c([C@@H]6CCCN6C(=O)[C@@H](NC(=O)OC)C(C)C)n5)cc4)cnc3c2)[nH]1)C1CCCC1` (stereo partly drawn) [Example 66, Methyl {(2S)-1-[(2S)-2-{4-[4-(6-{2-[(2S)-1-{cyclopentyl[(methoxycarbonyl)amino]acetyl}pyrrolidin-2-yl]-1H-imidazol-5-yl}quinoxalin-2-yl)phenyl]-1H-imidazol-2-yl}pyrrolidin-1-yl]-3-methyl-1-oxobutan-2-yl} carbamate trifluoroacetic acid salt]: the figures for the half-maximal inhibitory concentration (IC50) in test [1] (setting [4]) and in test [2] (setting [4]) were 1720 pM and 21.7 pM, respectively.
In the same order, the values of `COC(=O)N[C@@H](CC1CCCCC1)C(=O)N1CCC[C@H]1c1ncc(-c2ccc3nc(-c4ccc(-c5c[nH]c([C@@H]6CCCN6C(=O)[C@@H](NC(=O)OC)C(C)C)n5)cc4)cnc3c2)[nH]1` [Example 80, Methyl {(2S)-1-[(2S)-2-(4-{4-[6-(2-{(2S)-1-[3-cyclohexyl-N-(methoxycarbonyl)alanyl]pyrrolidin-2-yl}-1H-imidazol-5-yl)quinoxalin-2-yl]phenyl}-1H-imidazol-2-yl)pyrrolidin-1-yl]-3-methyl-1-oxobutan-2-yl} carbamate] are 117 pM and 11.4 pM.
Take `COC(=O)N[C@H](C(=O)N1CCC[C@H]1c1nc(-c2ccc(-c3cnc4cc(-c5cnc([C@@H]6CCCN6C(=O)[C@@H](Cc6c[nH]c7ccccc67)NC(=O)OC)[nH]5)ccc4n3)cc2)c[nH]1)C(C)C` [Example 82, Methyl {(2S)-1-[(2S)-2-{4-[4-(6-{2-[(2S)-1-{(2R)-3-(1H-indol-3-yl)-2-[(methoxycarbonyl)amino]propanoyl}pyrrolidin-2-yl]-1H-imidazol-5-yl}quinoxalin-2-yl)phenyl]-1H-imidazol-2-yl}pyrrolidin-1-yl]-3-methyl-1-oxobutan-2-yl}carbamate trifluoroacetic acid salt]: the half-maximal inhibitory concentration (IC50) in test [1] (Hepatitis C virus, 48 h) worked out at 490 pM; in test [2] (Hepatitis C virus, 48 h) it was 190 pM.
On to `COC(=O)N[C@H](C(=O)N1CCC[C@H]1c1nc(-c2ccc(-c3cnc4cc(-c5cnc([C@@H]6CCCN6C(=O)[C@@H](C)NC(C)=O)[nH]5)ccc4n3)cc2)c[nH]1)C(C)C` [Example 46, Methyl {(2S)-1-[(2S)-2-{4-[4-(6-(2-[(2S)-1-(N-acetyl-D-alanyl)pyrrolidin-2-yl]-1H-imidazol-5-yl}quinoxalin-2-yl)phenyl]-1H-imidazol-2-yl}pyrrolidin-1-yl]-3-methyl-1-oxobutan-2-yl}carbamate trifluoroacetic acid salt], for which the 50% inhibitory concentration (IC50) amounted to 803 pM in test [1] (Hepatitis C virus, 48 h) and 44.2 pM in test [2] (Hepatitis C virus, 48 h).
The matching figures for `COC(=O)N[C@H](C(=O)N1CCC[C@H]1c1nc(-c2ccc(-c3cnc4cc(-c5cnc([C@@H]6CCCN6C(=O)[C@@H](COCc6ccccc6)NC(=O)OC)[nH]5)ccc4n3)cc2)c[nH]1)C(C)C` [Example 63, Methyl {(2S)-1-[(2S)-2-{4-[4-(6-{2-[(2S)-1-{(2R)-3-(benzyloxy)-2-[(methoxycarbonyl)amino]propanoyl}pyrrolidin-2-yl]-1H-imidazol-5-yl}quinoxalin-2-yl)phenyl]-1H-imidazol-2-yl}pyrrolidin-1-yl]-3-methyl-1-oxobutan-2-yl}carbamate trifluoroacetic acid salt]: 4770 pM and 400 pM.
In the same order, the values of `COC(=O)N[C@@H](CO)C(=O)N1CCC[C@H]1c1ncc(-c2ccc3nc(-c4ccc(-c5c[nH]c([C@@H]6CCCN6C(=O)[C@@H](NC(=O)OC)C(C)C)n5)cc4)cnc3c2)[nH]1` [Example 64, Methyl {(2S)-1-[(2S)-2-{4-[4-(6-{2-[(2S)-1-{(2S)-3-hydroxy-2-[(methoxycarbonyl)amino]propanoyl}pyrrolidin-2-yl]-1H-imidazol-5-yl}quinoxalin-2-yl)phenyl]-1H-imidazol-2-yl}pyrrolidin-1-yl]-3-methyl-1-oxobutan-2-yl}carbamate trifluoroacetic acid salt] are 44.9 pM and 42 pM.
